Experimental data taken from patent US20220073532A1, “INHIBITORS OF CGAS ACTIVITY AS THERAPEUTIC AGENTS” (BELLBROOK LABS, LLC, priority 2019, published 2022).
Entries after “also recorded” stand apart in the source; their conditions may differ. Like-named read-outs stand apart in the source and are kept apart here. Each block holds one compound with its values, some of them ahead of it.

Assays:
THP1 cGAS KO cells = assay: Specificity test in THP-Dual cGAS knockout cells; assay type: cell-based, human; details: LPS-stimulated, cGAS KO
Excerpt: FIG. 5 includes (A) a schematic showing the THP1 dual-cell reporter system: secreted luciferase reports on IRF3-driven transcription; secreted alkaline phosphatase reports on NFκB-driven transcription, both downstream of cGAS/STING. THP-Dual cGAS knockout cells are used to test for non-specific effects; (B) a plot of the dose response for inhibition of Luc expression by Compound 15; (C) a plot of the dose response for inhibition of Luc expression by the TBK1 inhibitor, BX-795; and (D) a plot of the dose response for inhibition of SEAP expression by Compound 15.
(§1) IFN induction in human monocyte cell lines: The human monocyte cell line THP-1 gives a robust cGAS/STING-dependent type I IFN response and has been used extensively for studies on the pathway. Typically, cells are stimulated by transfection with dsDNA and gene expression is assessed using an ELISA for IFNβ, a reporter gene assay, and/or cGAS/STING pathway markers such as STING phosphorylation. These assays were validated using the TBK1 inhibitor, BX-795, which acts downstream of cGAS/STING, as a probe; THP-1 Dual cells (Invivogen, San Diego) are used as the reporter cell line for routine compound testing (FIG. 5A). These assays were optimized, including equalizing responses with transfected DNA and cGAMP and comparing responses between undifferentiated cells and cells that have been differentiated to macrophages (which show little difference). […] Stimulation of THP-1 Dual cells with damage-associated molecular pattern molecules (DAMPs) that act through pattern recognition receptors other than cGAS provides another way to confirm the specificity of putative cGAS inhibitors.

[1] = system: NFκB-driven SEAP expression in THP-1 Dual cells; assay: THP-1 Dual NFκB-SEAP reporter assay; assay type: cell-based, human
Method: as §1

[2] = system: IRF3-driven Luc expression in THP-1 Dual cells; assay: THP-1 Dual IRF3-Luc reporter assay; assay type: cell-based, human; details: for inhibition of IRF3-dependent Luc expression: THP-1 Dual cells, induced by DNA or cGAMP; for cGAS-dependent cellular activity: human monocyte cell line THP-1
Method: as §1

[3] = system: IFNβ expression in THP-1 cells; assay: IFNβ ELISA in THP-1 cells; assay type: cell-based, human
Method: as §1

cGAS [4] = target: T1, cGAS (Homo sapiens, UniProt Q8N884); assay: cGAS enzymatic assay (FP/TR-FRET detection of cGAMP); assay type: biochemical; design: The cGAS assay was used to screen 100,000 compounds with full-length human cGAS; 6xHis; made in house
Method: Some exemplary compounds of the disclosure were tested for inhibition of cGAS (30 nM). The results are provided in Table 1 where “A” indicates an IC50 of less than 100 nM, “B” indicates an IC50 of greater than 100 nM and less than 500 nM, “C” indicates an IC50 of greater than 500 nM and less than 1 μM, “D” indicates an IC50 of greater than 1 μM and less than 10 μM, and “E” indicates an IC50 of greater than 10 μM.
A homogenous cGAS enzymatic assay was developed with fluorescence polarization (FP) and time-resolved Forster resonance energy transfer (TR-FRET) readouts (FIG. 2A-2D). The cGAS assay was used to screen 100,000 compounds with full-length human cGAS (FIG. 2E), resulting in the identification of the novel chemotype of the disclosure, two of which are further developed in a structure-driven hit-to-lead study (Table 3, below). The assay performance was robust, as indicated by respective Z and Z′ values of 0.59 and 0.63 in the screen; compounds with polarization values greater than three SDs from the mean were considered hits; a scatterplot from 10 plates (3,200 compounds) is shown in FIG. 2D.
Biochemical and biophysical analysis: Potency and MOA studies, including Mn^2+ sensitivity, are performed using the cGAS enzymatic assay. Dose response experiments are used to determine IC50 values under basal conditions (5 mM MgCl2, 100 μM ATP/GTP), and with the addition of physiological levels of Mn (0.2 mM) using human and mouse cGAS. Ligand optimization is driven by potency with the human enzyme; potency with mouse cGAS informs selection of an appropriate disease model for efficacy studies. Competition with ATP and GTP is assessed by comparing basal IC50 values to those in the presence of saturating ATP or GTP, and subsequently confirmed by measuring velocity vs. substrate at varying ATP or GTP levels. Inhibitor residence times (1/koff) are used as a key parameter for prioritizing compounds and driving SAR, because a longer residence time often results from an allosteric mechanism, and can also correlate with improved cellular activity. The cGAS enzymatic assay is used with the jump dilution method to measure residence times (inhibitor dissociation rates), as described for kinases using the very similar ADP assay. Biophysical methods, including SPR and TSA, are used as orthologous methods for residence time measurements and kd estimates.

cGAS [5] = target: T1, cGAS; assay: SPR / biophysical binding to cGAS; details: SPR; read-out: Kd determined with SPR
Excerpt: Following confirmation of hits at three concentrations and removal of compounds with visually evident reactivity or metabolic liabilities, non-stoichiometric inhibitors, aggregators, DNA intercalators and redox-active compounds were triaged (FIG. 2E) using established assays. […] Initial SAR based on more than 100 commercially available analogs provided additional confidence that the compounds were bonafide inhibitors, and informed potential scaffold hops and toleration for modifications.
A highly efficient platform for preclinical drug discovery (FIG. 3) was assembled, providing for development of cGAS inhibitors, which is improved by the addition of a powerful computational modeling method and in vivo PK studies (FIG. 3). […]
Biochemical and biophysical analysis: Potency and MOA studies, including Mn^2+ sensitivity, are performed using the cGAS enzymatic assay. […] Competition with ATP and GTP is assessed by comparing basal IC50 values to those in the presence of saturating ATP or GTP, and subsequently confirmed by measuring velocity vs. substrate at varying ATP or GTP levels. […]

[6] = system: interferon-sensitive gene (ISG) expression in THP1-dual cells; assay: ISG mRNA expression by RT-PCR in THP1-dual cells; assay type: cell-based, human; details: 24 hours, normalized to β-actin
Method: FIG. 6A illustrates activity of IFNβ expression of the compounds of disclosure. FIG. 6B illustrates inhibition of reporter genes from cGAS/STING-driven promoters of compound 28 in THP1-dual cells. FIG. 6C illustrates the ISG mRNA expression of compound 28 in THP1-dual cells. Compound 28 in concentration of 200 μM was evaluated after 24 hours. The results were normalized to β-actin.

[7] = cGAS (30 nM), with Mn^2+, read-out: Inhibition cGAS + Mn^2+
[8] = cGAS (30 nM), read-out: Inhibition cGAS

T1 sequence (Q8N884 whole entry): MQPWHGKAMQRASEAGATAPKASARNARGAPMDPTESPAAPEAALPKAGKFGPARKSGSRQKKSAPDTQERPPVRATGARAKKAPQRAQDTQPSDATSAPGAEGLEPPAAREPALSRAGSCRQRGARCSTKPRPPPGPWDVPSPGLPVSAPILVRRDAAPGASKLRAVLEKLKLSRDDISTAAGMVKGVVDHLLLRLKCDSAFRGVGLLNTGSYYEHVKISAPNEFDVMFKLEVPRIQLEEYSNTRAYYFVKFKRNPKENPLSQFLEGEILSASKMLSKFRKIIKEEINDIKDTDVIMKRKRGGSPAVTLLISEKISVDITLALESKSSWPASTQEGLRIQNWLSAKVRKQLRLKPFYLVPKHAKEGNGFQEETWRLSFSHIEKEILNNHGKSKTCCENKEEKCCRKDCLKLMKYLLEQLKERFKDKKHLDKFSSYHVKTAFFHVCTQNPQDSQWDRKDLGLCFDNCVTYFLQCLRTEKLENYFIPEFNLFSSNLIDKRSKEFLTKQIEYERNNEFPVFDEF

SMILES: O=C(NCCCNc1nc(Nc2cccc(NC(=O)N3CCCC3)c2)ncc1I)c1cccs1 [BX-795, reference compound]
- effect on IRF3-driven Luc expression in THP1 cGAS KO cells stimulated with LPS (THP1 cGAS KO cells): inhibited with an expected potency
- inhibition of NFκB-driven SEAP expression ([1]; THP-1 Dual cells): did not inhibit
- inhibition of IRF3-dependent Luc expression [2]: dose-dependent inhibition

- IC50 (cGAS [4]; [7]): 1000 to 10000 nM
- IC50 (cGAS [4]; [8]): 100 to 500 nM
SMILES: Cc1nc(N2C[C@@H](Nc3n[nH]cc3C3CC3)C[C@H]2C(=O)O)c2oc3ccccc3c2n1 [Compound 53, (2S,4S)-4-((4-cyclopropyl-1H-pyrazol-3-yl)amino)-1-(2-methylbenzofuro[3,2-d]pyrimidin-4-yl)pyrrolidine-2-carboxylic acid]
- inhibition of IFNβ expression [3]: inhibit IFNβ expression
- inhibition of IRF3-dependent Luc expression [2]: reproducible inhibition

SMILES: CCN(CCO)CCCC(C)Nc1ccnc2cc(Cl)ccc12 (centres unmarked) [hydroxychloroquine, reference compound]
- cGAS-dependent cellular activity [2]: not observed

- IC50 (cGAS [4]; 5 mM Mg^2+, 0.2 mM Mn^2+, read-out: IC50 (5 mM Mg^2+, 0.2 mM Mn^2+)): 19000 nM
- IC50 (cGAS [4]; 5 mM Mg^2+, read-out: IC50 (5 mM Mg^2+)): 2600 nM
- IC50 (cGAS [4]; [7]): > 10000 nM
- IC50 (cGAS [4]; [8]): 1000 to 10000 nM
- IC50 (cGAS [4]; read-out: IC50 in the cGAS enzymatic assay): 1260 nM
- Kd (cGAS [5]): 2400 nM
SMILES: CCc1nc(N2CCC[C@H]2C(=O)O)c2oc3ccccc3c2n1 [Compound 1, (2-ethylbenzofuro[3,2-d]pyrimidin-4-yl)-L-proline]

SMILES: Cc1ccc(C(=O)Nc2ccc(S(=O)(=O)O)c3cc(S(=O)(=O)O)cc(S(=O)(=O)O)c23)cc1NC(=O)c1cccc(NC(=O)Nc2cccc(C(=O)Nc3cc(C(=O)Nc4ccc(S(=O)(=O)O)c5cc(S(=O)(=O)O)cc(S(=O)(=O)O)c45)ccc3C)c2)c1 [suramin, reference compound]
- cGAS-dependent cellular activity [2]: not observed

- IC50 ([3]; Homo sapiens, read-out: Cellular IFNβ ELISA IC50): 13000 nM
- IC50 (cGAS [4]; 100 μM ATP/GTP, read-out: Enzymatic FP Std (100 μM ATP/GTP) IC50): 356 nM
- IC50 (cGAS [4]; 1 mM ATP/GTP, read-out: Enzymatic FP Physiological (1 mM ATP/GTP) IC50): 3250 nM
- IC50 (cGAS [4]; [8]): 100 to 500 nM
- IC50 ([1]; Homo sapiens, THP1-dual cells, read-out: Cellular NFκB-SEAP IC50): 9000 nM
- IC50 ([2]; Homo sapiens, THP1-dual cells, read-out: Cellular IRF3-Luc IC50): 20000 nM
SMILES: Cc1nc(N2C[C@@H](CC(=O)Nc3ccncc3)C[C@H]2C(=O)O)c2oc3ccccc3c2n1 [Compound 28, (2S,4R)-1-(2-methylbenzofuro[3,2-d]pyrimidin-4-yl)-4-(2-oxo-2-(pyridin-4-ylamino)ethyl)pyrrolidine-2-carboxylic acid]
- inhibition of IFNβ expression [3]: reproducible inhibition; also recorded: inhibit IFNβ expression
- specificity: DNA- versus cGAMP-stimulated cells [3]: specific for DNA-stimulated cells; also recorded: more potent inhibition of cells stimulated with DNA than those stimulated with cGAMP
- ISG expression (fold decrease @ 200 μM) [6]: 2-3×

- IC50 (cGAS [4]; [7]): > 10000 nM
- IC50 (cGAS [4]; [8]): > 10000 nM
SMILES: O=C(O)[C@@H]1CCCN1c1nc(-c2ccccc2)nc2c1oc1ccccc12 [Compound 13, (2-phenylbenzofuro[3,2-d]pyrimidin-4-yl)-L-proline]

- IC50 (cGAS [4]; [7]): > 10000 nM
- IC50 (cGAS [4]; [8]): 1000 to 10000 nM
SMILES: Cc1nc(NCC(=O)O)c2oc3ccccc3c2n1 [Compound 2, (2-methylbenzofuro[3,2-d]pyrimidin-4-yl)glycine]

- IC50 (cGAS [4]; [8]): 1000 to 10000 nM
SMILES: Cc1nc(N2C[C@@H](NC(N)=O)C[C@H]2C(=O)O)c2oc3ccccc3c2n1 [Compound 43, (2S,4S)-1-(2-methylbenzofuro[3,2-d]pyrimidin-4-yl)-4-ureidopyrrolidine-2-carboxylic acid]

- IC50 (cGAS [4]; [7]): 1000 to 10000 nM
- IC50 (cGAS [4]; [8]): 500 to 1000 nM
SMILES: Cc1nc(N2C[C@@H](NC(=O)C3(c4ccncc4)CC3)C[C@H]2C(=O)O)c2oc3ccccc3c2n1 [Compound 62, (2S,4S)-1-(2-methylbenzofuro[3,2-d]pyrimidin-4-yl)-4-(1-(pyridin-4-yl)cyclopropane-1-carboxamido)pyrrolidine-2-carboxylic acid]

- IC50 (cGAS [4]; [7]): 1000 to 10000 nM
- IC50 (cGAS [4]; [8]): 500 to 1000 nM
SMILES: Cc1nc(N2CCC[C@H]2C(=O)O)c2oc3cc(F)ccc3c2n1 [Compound 69, (7-fluoro-2-methylbenzofuro[3,2-d]pyrimidin-4-yl)-L-proline]

- IC50 (cGAS [4]; [8]): 1000 to 10000 nM
SMILES: Cc1nc(N2C[C@@H](CC(=O)Nc3ccccn3)C[C@H]2C(=O)O)c2oc3ccccc3c2n1 [Compound 46, (2S,4R)-1-(2-methylbenzofuro[3,2-d]pyrimidin-4-yl)-4-(2-oxo-2-(pyridin-2-ylamino)ethyl)pyrrolidine-2-carboxylic acid]

- IC50 (cGAS [4]; [7]): 1000 to 10000 nM
- IC50 (cGAS [4]; [8]): 1000 to 10000 nM
SMILES: N#Cc1nc(N2CCC[C@H]2C(=O)O)c2oc3ccccc3c2n1 [Compound 22, (2-cyanobenzofuro[3,2-d]pyrimidin-4-yl)-L-proline]

SMILES: CCN(CC)CCCC(C)Nc1c2ccc(Cl)cc2nc2ccc(OC)cc12 (centres unmarked) [quinacrine, reference compound]
- cGAS-dependent cellular activity [2]: not observed

- IC50 (cGAS [4]; [8]): 100 to 500 nM
SMILES: Cc1nc(N2C[C@@H](Nc3n[nH]cc3C)C[C@H]2C(=O)O)c2oc3ccccc3c2n1 [Compound 27, (2S,4S)-4-((4-methyl-1H-pyrazol-3-yl)amino)-1-(2-methylbenzofuro[3,2-d]pyrimidin-4-yl)pyrrolidine-2-carboxylic acid]
